According to patent US20240058450A1, “BCL-XL Inhibitory Compounds Having Low Cell Permeability and Antibody Drug Conjugates Including the Same” (AbbVie Inc., priority 2014, published 2024):
Like-named read-outs stand apart in the source and are kept apart here.

How the values were obtained:
[1] = biological target: Bcl-xL (Homo sapiens, UniProt Q07817); experiment: Time Resolved-Fluorescence Resonance Energy Transfer (TR-FRET) binding assay, competition with probe F-Bak
Procedure, shortened: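 TR-FRET binding assay run at room temperature for 2 h after mixing compound with Bcl-xL protein, F-Bak probe and Tb-labelled antibody. Test compounds diluted from a 2× 50 μM stock. Ki values derived via Wang's equation from 520/495 nm emission under 340 nm excitation, in the absence of serum or with 1% HS.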

[2] = system: permeabilized Bcl-xL dependent Molt-4 cells; experiment: Cytochrome C release in selectively (digitonin) permeabilized Molt-4 cells; type: cell-based, human; conditions: Homo sapiens, MOLT-4, 4 h, 4 h treatment, read-out: Molt-4 Permeabilized Cyt C Release
Source text: The permeabilization of the mitochondrial outer membrane to release proteins from the intermembrane space into the cytosol is a pivotal event in the process of apoptosis. Specifically, the release of cytochrome C triggers the formation of the apoptosome which, in turn, results in caspase activation and other events that will commit the cell to undergo programmed cell death (Goldstein el al., 2005, Cell Death and Differentiation 12:453). The process of mitochondrial outer membrane permeabilization (MOMP) is controlled by the Bcl-2 family members. It is promoted by the multidomain pro-apoptotic proteins Bax and Bak which, upon activation, oligomerize on the outer mitochondrial membrane and form pores to ultimately release cytochrome C. This action is antagonized by the antiapoptotic members, including Bcl-2 and Bcl-xL. Compounds that are capable of inhibiting Bcl-2 or Bcl-xL, for example, in cells that depend upon these proteins for survival, can cause activation of Bax and or Bak, MOMP, release of cytochrome C and the mentioned downstream steps in the apoptotic process. This process of cytochrome C release can be measured in cells via Western blot of both mitochrondrial and cytosolic fractions, and can be used a proxy measurement of apoptosis in cells.
As a means of detecting the ability of a Bcl-xL inhibitor with low cell-permeability to cause release of cytochrome C, the cells can be treated with an agent that causes selective pore formation in the plasma membrane, but not the mitochondrial membrane. Specifically, the cholesterol/phospholipid ratio is much higher in the plasma membrane than the mitochondrial membrane. […] This agent forms insoluble complexes with cholesterol leading to the segregation of cholesterol from its normal phospholipid binding sites. This action, in turn, leads to the formation of holes about 40-50 Å wide in the lipid bilayer. Once the plasma membrane is permeabilized, cytosolic components able to pass over digitonin-formed holes can be washed out, including the cytochrome C that was released from mitochondria to cytosol in the apoptotic cells ((Campos, 2006, Cytometry A 69(6):515-523)).
To determine if Bcl-xL inhibitors were inducing cell death through apoptosis, cytochrome C release was measured in Bcl-xL dependent Molt-4 cells following treatment Specifically, 1×10^6 cells were treated for 4 h (37° C., 5% CO2) with the test compounds in half-log dilutions starting at 3.0 μM and ending at 0.01 μM. Cells were then processed as described in Chen et al., 2011, Mol. Cancer Ther. 10:2340-2350 (the Bcl-2/Bcl-X(L)/Bcl-w inhibitor, navitoclax, enhances the activity of chemotherapeutic agents in vitro and in vivo.).

[3] = system: Molt-4 human acute lymphoblastic leukemia cells; experiment: Molt-4 cell viability assay (CellTiter-Glo, 48 hours, 10% HS); type: cell-based; conditions: Homo sapiens, MOLT-4, 48 h, non-permeabilized cells
Procedure, shortened: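 Cells were seeded at 12,500 per well in medium with 10% human serum and exposed to a 3-fold compound dilution series from 10 μM to 0.0005 μM. After 48 h, viable cells were quantified by CellTiter-Glo luminescence. Each concentration was run in duplicate on at least 3 occasions.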

[4] = in the presence of 1% HS, read-out: Bcl-xL Binding Ki (nM, 1% HS)
[5] = without HS, read-out: Bcl-xL Binding Ki

Bcl-xL, sequence (Q07817 whole entry): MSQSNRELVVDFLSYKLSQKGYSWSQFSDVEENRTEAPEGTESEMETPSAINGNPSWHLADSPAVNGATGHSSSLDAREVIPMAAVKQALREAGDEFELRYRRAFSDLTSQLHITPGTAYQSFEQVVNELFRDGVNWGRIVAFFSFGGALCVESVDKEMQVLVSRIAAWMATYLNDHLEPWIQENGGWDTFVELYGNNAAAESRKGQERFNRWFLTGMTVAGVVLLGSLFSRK

SMILES	Ki [1, 4] [nM]	Ki [1, 5] [nM]	EC50 [2] [nM]	EC50 [3] [nM]
Cc1c(-c2ccc(N3CCc4cccc(C(=O)Nc5nc6ccccc6s5)c4C3)nc2C(=O)O)cnn1CC12CC3(C)CC(C)(C1)CC(OCCNCCS(=O)(=O)O)(C3)C2 [Example 1.2, 6-[8-(1,3-benzothiazol-2-ylcarbamoyl)-3,4-dihydroisoquinolin-2 (1H)-yl]-3-(1-[(3,5-dimethyl-7-{12-[(2-sulfoethyl)amino]ethoxy}tricyclo[3.3.1.1^3,7]dec-1-yl)methyl]-5-methyl-1H-pyrazol-4-yl}pyridine-2-carboxylic acid]	0.16	< 0.001	< 0.5	–
Cc1c(-c2ccc(N3CCc4cccc(C(=O)Nc5nc6ccccc6s5)c4C3)nc2C(=O)O)cnn1CC12CC3(C)CC(C)(C1)CC(OCCNCCCS(=O)(=O)O)(C3)C2 [Example 1.5, 6-[8-(1,3-benzothiazol-2-ylcarbamoyl)-3,4-dihydroisoquinolin-2 (1H)-yl]-3-{1-[(3,5-dimethyl-7-{2-[(3-sulfopropyl)amino]ethoxy}tricyclo[3.3.1.1^3,7]dec-1-yl)methyl]-5-methyl-1H-pyrazol-4-yl}pyridine-2-carboxylic acid]	0.26	0.019	0.5 to 1	189
Cc1c(-c2ccc(N3CCc4cccc(C(=O)Nc5nc6ccccc6s5)c4C3)nc2C(=O)O)cnn1CC12CC3(C)CC(C)(C1)CC(OCCOCCNCc1ccc(O[C@@H]4O[C@H](CO)[C@@H](O)[C@@H](O)[C@H]4O)cc1)(C3)C2 [Example 1.10, 3-[1-({3-[2-(2-{[4-(beta-D-allopyranosyloxy)benzyl]amino}ethoxy)ethoxy]-5,7-dimethyltricyclo[3.3.1.1^3,7]dec-1-yl}methyl)-5-methyl-1H-pyrazol-4-yl]-6-[8-(1,3-benzothiazol-2-ylcarbamoyl)-3,4-dihydroisoquinolin-2 (1H)-yl]pyridine-2-carboxylic acid]	0.027	< 0.001	< 0.5	74
Cc1c(-c2ccc(N3CCc4cccc(C(=O)Nc5nc6ccccc6s5)c4C3)nc2C(=O)O)cnn1CC12CC3(C)CC(C)(C1)CC(OCCNCCC(=O)NC(CO)(CO)CO)(C3)C2 [Example 1.84, 6-[8-(1,3-benzothiazol-2-ylcarbamoyl)-3,4-dihydroisoquinolin-2 (1H)-yl]-3-{1-[(3-{2-[(3-{[1,3-dihydroxy-2-(hydroxymethyl)propan-2-yl]amino}-3-oxopropyl)amino]ethoxy}-5,7-dimethyltricyclo[3.3.1.1^3,7]dec-1-yl)methyl]-5-methyl-1H-pyrazol-4-yl}pyridine-2-carboxylic acid]	1.2	0.069	–	259

Results, then the compound that gave them:

Ki [1, 4] [nM]	Ki [1, 5] [nM]	EC50 [2] [nM]	EC50 [3] [nM]	SMILES
0.17	< 0.001	< 0.5	63	Cc1c(-c2ccc(N3CCc4cccc(C(=O)Nc5nc6ccccc6s5)c4C3)nc2C(=O)O)cnn1CC12CC3(C)CC(C)(C1)CC(OCCOCCNCCS(=O)(=O)O)(C3)C2 [Example 1.11, 6-[8-(1,3-benzothiazol-2-ylcarbamoyl)-3,4-dihydroisoquinolin-2 (1H)-yl]-3-(1-{[3,5-dimethyl-7-(2-{2-[(2-sulfoethyl)amino]ethoxy}ethoxy)tricyclo[3.3.1.1^3,7]dec-1-yl]methyl}-5-methyl-1H-pyrazol-4-yl}pyridine-2-carboxylic acid]
–	–	< 0.5	92	Cc1c(-c2ccc(N3CCc4c(OCCNCCC(=O)O)ccc(C(=O)Nc5nc6ccccc6s5)c4C3)nc2C(=O)O)cnn1CC12CC3(C)CC(C)(C1)CC(OCCN(C)CCS(=O)(=O)O)(C3)C2 [Example 1.49, 6-[8-(1,3-benzothiazol-2-ylcarbamoyl)-5-{2-[(2-carboxyethyl)amino]ethoxy}-3,4-dihydroisoquinolin-2 (1H)-yl]-3-{1-[(3,5-dimethyl-7-{2-[methyl(2-sulfoethyl)amino]ethoxy}tricyclo[3.3.1.1^3,7]dec-1-yl)methyl]-5-methyl-1H-pyrazol-4-yl}pyridine-2-carboxylic acid]
